Reference: patent US7186695B2 (priority 2001, dated 2007)

Assays:
BAE cells [1] = system: BAE cells
[2] = target: T1, TrpCysGlyHisCysLys (PDI active site hexapeptide) (Homo sapiens, UniProt P07237); test: Binding of GSAO to dithiols, loss of thiols in DTNB assay
T1 construct: purchased Auspep, Parkville, Australia; host or cells: synthetic peptide
Method: (§1) FIG. 12. Interaction of GSAO with synthetic. Deptide and protein dithiols. DMP (A) (15 μM), 6,8-thioctic acid (B) ([…]), dithiothreitol (C) (8.5 μM), TrpCysGlyProCysLys (D) (4.6 μM), TrpCysGlyHisCysLys (E) (5.5 μM) or thioredoxin (F) (4.1 μM corresponding to 20.6 μM thiols) was incubated with GSAO (0–56 μM) for 10 minutes. DTNB (950 μM) was then added and the reactions incubated for a further 10 minutes. The concentration of thiol in the reactions was determined from the absorbance of the TNB dianion at 412 nm. The solid lines represent the best non-linear least squares fit of the data to Equation 1 (A to E) or Equation 2 (F) and have been drawn using the parameter estimates in Table 1. The dotted line in part A represents a simulated titration assuming an infinite affinity of GSAO for the dithiol. GSAO bound to both synthetic, peptide and protein dithiols with dissociation constants in the range 130 nM to 1.4 μM.
(§2) A stock solution of DMP (5 μL, 50 μmol) was dissolved in DMSO (995 μL), giving a concentration of 50 mM DMP. A second dilution of the 50 mM DMP stock solution (10 μL) in pH 7.0 buffer (0.1 M HEPES, 0.3 M NaCl, 1 mM EDTA) (990 μL) gave a working solution of 500 ? M DMP. The activity of the arsenical could then be determined by the titration of varying amounts of arsenical against the DMP working solution (10 μL) in a 96-well microbitre plate, with the total volume made up to 195 μL by addition of buffer. After a 10 minute incubation at room temperature, during which time the solutions were agitated on a plate shaker, 5 μL of a 37.9 mM stock solution of DTNB (15 mg) in DMSO (1 mL) was added, and the plate incubated with shaking for another 10 minutes. The absorbance at 412 nm due to the formation of the TNB dianion was measured using a Molecular Devices Thermomax Plus (Palo Alto, Calif.) microplate reader. The extinction coefficient for the TNB dianion at pH 7.0 is 14,150 M^−1cm^−1 at 412 nm (Riddles et al., 1983).
(§3) Recombinant human thioredoxin produced in E. coli was from American Diagnostica, Greenwich, Conn. The hexapeptides, TrpCysGlyProCysLys (SEQ ID NO: 1) and TrpCysGiyHisCysLys (SEQ ID NO: 2), were from Auspep, Parkville, Australia.
(§4) Binding of GSAO to dithiols was measured from loss of thiols using the DTNB assay described above. The dissociation constant, Kd, for GSAO binding to dithiols was determined by incubating increasing concentrations of GSAO, I, with a fixed dithiol concentration, [S]T, and measuring the remaining dithiol using DTNB. Note that the concentration of dithiol equals half the TNB concentration. The concentration of dithiol.GSAO complex, SI, as a function of the total GSAO concentration, [I]T, is described by Equation 1 (Hogg and Jackson, 1990), [SI]=0.5.{([S]T+x.[I]T+Kd)−(([S]T+x.[I]T+Kd)^2−4.[S]T.x.[I]T)^0.5} (1) […]

[3] = target: T2, TrpCysGlyProCysLys (thioredoxin active site hexapeptide) (Homo sapiens, UniProt P10599); test: as above
T2 construct: purchased Auspep, Parkville, Australia; host or cells: synthetic peptide
Method: as §1, §2, §3, §4

Thioredoxin = target: T3, Thioredoxin (Homo sapiens, UniProt P10599); test: Binding of GSAO to thioredoxin active site dithiol, DTNB assay
T3 construct: purchased American Diagnostica, Greenwich, Conn; host or cells: E. coli
T3 sequence (P10599 1-105): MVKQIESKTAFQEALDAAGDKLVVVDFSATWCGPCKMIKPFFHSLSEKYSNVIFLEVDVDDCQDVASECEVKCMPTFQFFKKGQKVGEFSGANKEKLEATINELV
Method: as §1, with “GSAO bound to both synthetic, peptide and protein dithiols with dissociation constants in the range 130 nM to 1.4 μM.” left out
A stock solution of DMP (5 μL, 50 μmol) was dissolved in DMSO (995 μL), giving a concentration of 50 mM DMP. […] The activity of the arsenical could then be determined by the titration of varying amounts of arsenical against the DMP working solution (10 μL) in a 96-well microbitre plate, with the total volume made up to 195 μL by addition of buffer. […] The absorbance at 412 nm due to the formation of the TNB dianion was measured using a Molecular Devices Thermomax Plus (Palo Alto, Calif.) microplate reader. […]

[4] = Titration of cysteine with GSAO, DTNB assay; assay type: binding; details: cysteine 28 μM, GSAO 0–50 μM, 10 minutes
Method: FIG. 11. Titration of DMP or cysteine with GSAO. DMP (15 μM corresponding to 30 μM thiols) is or cysteine (28 μM) was incubated with GSAO (0–50 μM) for 10 minutes. DTNB (950 μM) was then added and the reactions incubated for a further 10 minutes. The concentration of thiol in the reactions was determined from the absorbance of the TNB dianion at 412 nm.
as §2

BAE cells [5] = test: cells; details: Bos taurus, Endothelial cell, 24 h, read-out: IC50 for viability
[6] = Dissociation Constant, ring size 15, errors are 1 SD
[7] = dissociation constant, approximate value

SMILES	effect on BAE viability (BAE cells [1])	Kd [2, 6]	Kd [2, 7]	Kd [3, 6]	Kd [3, 7]	Kd (Thioredoxin)	higher affinity for thioredoxin than for the thioredoxin active site hexapeptide (Thioredoxin; thioredoxin vs TrpCysGlyProCysLys)	interaction of GSAO with cysteine in DTNB titration [4]	IC50 (BAE cells [5])
N[C@@H](CCC(=O)N[C@@H](CSCC(=O)Nc1ccc([As](=O)(O)O)cc1)C(=O)NCC(=O)O)C(=O)O [GSAA, 4-(N-(S-glutathionylacetyl)amino)phenylarsonic acid, reference compound]	no significant effect	–	–	–	–	–	–	–	–
NC(CCC(=O)NC(CSCC(=O)Nc1ccc([As]=O)cc1)C(=O)NCC(=O)O)C(=O)O (stereo not drawn) [GSAO, 4-(N-(S-glutathionylacetyl)amino)-phenylarsenoxide]	–	870 ± 270 nM	~1000 nM	1420 nM	~1000 nM	370 ± 180 nM	~4 fold	any interaction of GSAO with cysteine was displaced by DTNB	~100000 nM
